According to PubChem BioAssay AID248 (DTP/NCI, 2004):
Values joined by “and” are separate entries in the source; they are usually repeats but may differ in a detail not shown here. Identical values can stand only once. Inconclusive results and toxic doses are left out. No stated cut-off is given here; in the data, active means T/C of 150% or more; inactive means T/C below 125%.

Tested on: L1210 leukemia ip in BDF1 mice, survival T/C
Experiment: NCI In Vivo Anticancer Drug Screen. Data for tumor model L1210 Leukemia (intraperitoneal) in B6D2F1 (BDF1) mice
Conditions: endpoint: mean survival time, higher = longer survival
In short: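 Value reflects the ratio of survival in compound-treated mice to survival in vehicle-treated controls, with both groups carrying the same transplanted tumor.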

[1] = dose: 100.0 mg/kg/injection, schedule: Q01DX001 (ip), vehicle: saline with Tween-80
[2] = dose: 200.0 mg/kg/injection, schedule: Q01DX001 (ip), vehicle: saline with Tween-80
[3] = dose: 400.0 mg/kg/injection, schedule: Q01DX001 (ip), vehicle: saline with Tween-80
[4] = dose: 100.0 mg/kg/injection, schedule: Q04DX003 (ip), vehicle: saline
[5] = dose: 200.0 mg/kg/injection, schedule: Q04DX003 (ip), vehicle: saline
[6] = dose: 400.0 mg/kg/injection, schedule: Q04DX003 (ip), vehicle: saline
[7] = dose: 100.0 mg/kg/injection, schedule: Q01DX001 (ip), vehicle: saline
[8] = dose: 200.0 mg/kg/injection, schedule: Q01DX001 (ip), vehicle: saline
[9] = dose: 400.0 mg/kg/injection, schedule: Q01DX001 (ip), vehicle: saline

Measured: T/C

N#CS/C=C\C(=O)O
inactive: dose: 3.12 mg/kg/injection, schedule: Q01DX001 (ip), vehicle: saline with Tween-80 95 % of control and 101 % of control | dose: 3.12 mg/kg/injection, schedule: Q01DX009 (ip), vehicle: saline with Tween-80 93 % of control | dose: 3.12 mg/kg/injection, schedule: Q04DX003 (ip), vehicle: saline with Tween-80 107 % of control | dose: 6.25 mg/kg/injection, schedule: Q01DX001 (ip), vehicle: saline with Tween-80 95 % of control and 101 % of control | dose: 6.25 mg/kg/injection, schedule: Q01DX009 (ip), vehicle: saline with Tween-80 98 % of control and 102 % of control | dose: 6.25 mg/kg/injection, schedule: Q04DX003 (ip), vehicle: saline with Tween-80 96 % of control and 100 % of control | dose: 12.5 mg/kg/injection, schedule: Q01DX001 (ip), vehicle: saline with Tween-80 94 % of control and 103 % of control and 105 % of control | dose: 12.5 mg/kg/injection, schedule: Q01DX009 (ip), vehicle: saline with Tween-80 95 % of control and 102 % of control | dose: 12.5 mg/kg/injection, schedule: Q04DX003 (ip), vehicle: saline with Tween-80 102 % of control and 103 % of control | dose: 25.0 mg/kg/injection, schedule: Q01DX001 (ip), vehicle: saline with Tween-80 94 % of control and 103 % of control | dose: 25.0 mg/kg/injection, schedule: Q01DX009 (ip), vehicle: saline with Tween-80 100 % of control and 92 % of control | dose: 25.0 mg/kg/injection, schedule: Q04DX003 (ip), vehicle: saline with Tween-80 93 % of control and 98 % of control | dose: 50.0 mg/kg/injection, schedule: Q01DX001 (ip), vehicle: saline with Tween-80 100 % of control | dose: 50.0 mg/kg/injection, schedule: Q04DX003 (ip), vehicle: saline with Tween-80 97 % of control

CCOC(=O)C(=N\Nc1ccccc1OC)/C(C)=N\NC(N)=S
inactive: dose: 75.0 mg/kg/injection, schedule: Q01DX001 (ip), vehicle: acetone 93 % of control | dose: 150.0 mg/kg/injection, schedule: Q01DX001 (ip), vehicle: acetone 90 % of control | dose: 150.0 mg/kg/injection, schedule: Q01DX001 (ip), vehicle: saline 94 % of control

C=C(C)COC(=O)Nc1cccc(OC(=O)NC)c1
inactive: [1] 97 % of control | [2] 97 % of control | [3] 94 % of control

COc1ccc2c(c1)C(C)(C)N(C)CC2
inactive: dose: 100.0 mg/kg/injection, schedule: Q04DX003 (ip), vehicle: acetone 104 % of control

O=[N+]([O-])c1ccc(OCCOCCOc2ccc(S(=O)(=O)F)cc2)c(Cl)c1
inactive: [1] 89 % of control | [2] 97 % of control | [3] 103 % of control

CC(C)=C(Br)c1c(C)cc(C)c(Nc2ccc([N+](=O)[O-])cc2)c1C
inactive: [4] 94 % of control | [5] 91 % of control | [6] 91 % of control

CCCCCCCC[N+](CC)(CC)CCOC(=O)C(C1CCCC1)C1CCCC1
inactive: dose: 0.25 mg/kg/injection, schedule: Q01DX015 (ip), vehicle: saline 91 % of control | dose: 0.5 mg/kg/injection, schedule: Q01DX015 (ip), vehicle: saline 91 % of control | dose: 1.0 mg/kg/injection, schedule: Q01DX015 (ip), vehicle: saline 88 % of control | dose: 1.25 mg/kg/injection, schedule: Q01DX009 (ip), vehicle: saline 95 % of control | dose: 2.0 mg/kg/injection, schedule: Q01DX015 (ip), vehicle: saline 86 % of control | dose: 2.5 mg/kg/injection, schedule: Q01DX009 (ip), vehicle: saline 102 % of control | dose: 2.5 mg/kg/injection, schedule: Q04DX003 (ip), vehicle: saline 94 % of control | dose: 5.0 mg/kg/injection, schedule: Q04DX003 (ip), vehicle: saline 94 % of control

CCOCCOC(=O)c1ccc(C#N)cc1
inactive: [7] 100 % of control | [8] 97 % of control | [9] 97 % of control

CC(C)(Cl)C(N)=O
inactive: [7] 101 % of control | [8] 103 % of control | [9] 97 % of control

CCCCNC(c1ccc(C=NC(CC)(CO)CO)cc1)C(Br)(Br)Br (configuration not stated)
inactive: [7] 92 % of control | dose: 100.0 mg/kg/injection, schedule: Q01DX009 (ip), vehicle: saline 88 % of control | [8] 92 % of control | dose: 200.0 mg/kg/injection, schedule: Q01DX009 (ip), vehicle: saline 90 % of control | [9] 97 % of control | dose: 400.0 mg/kg/injection, schedule: Q01DX009 (ip), vehicle: saline 91 % of control

Cc1ccc(S(=O)(=O)N(C)c2cc(Cl)c(C(N)=O)c(Cl)c2)cc1
inactive: dose: 100.0 mg/kg/injection, schedule: Q01DX001 (ip), vehicle: Klucel (hydroxypropylcellulose) (HPC) 93 % of control | dose: 100.0 mg/kg/injection, schedule: Q01DX009 (ip), vehicle: saline sonified 97 % of control | dose: 100.0 mg/kg/injection, schedule: Q01DX009 (ip), vehicle: saline with Tween-80 98 % of control | dose: 100.0 mg/kg/injection, schedule: Q04DX003 (ip), vehicle: saline with Tween-80 105 % of control | dose: 200.0 mg/kg/injection, schedule: Q01DX001 (ip), vehicle: Klucel (hydroxypropylcellulose) (HPC) 95 % of control | dose: 200.0 mg/kg/injection, schedule: Q01DX009 (ip), vehicle: saline sonified 105 % of control | dose: 200.0 mg/kg/injection, schedule: Q01DX009 (ip), vehicle: saline with Tween-80 90 % of control | dose: 200.0 mg/kg/injection, schedule: Q04DX003 (ip), vehicle: saline with Tween-80 101 % of control | dose: 400.0 mg/kg/injection, schedule: Q01DX001 (ip), vehicle: Klucel (hydroxypropylcellulose) (HPC) 100 % of control | dose: 400.0 mg/kg/injection, schedule: Q01DX009 (ip), vehicle: saline sonified 93 % of control | dose: 400.0 mg/kg/injection, schedule: Q01DX009 (ip), vehicle: saline with Tween-80 92 % of control | dose: 400.0 mg/kg/injection, schedule: Q04DX003 (ip), vehicle: saline with Tween-80 92 % of control

NC(CCc1cc(O)ccc1O)C(=O)O (configuration not stated)
inactive: [4] 105 % of control | [5] 107 % of control | [6] 98 % of control

O=c1[nH]c2ccccc2c2cc3ccccc3cc12
inactive: dose: 88.8 mg/kg/injection, schedule: Q01DX001 (ip), vehicle: carboxymethylcellulose (CMC) 93 % of control and 102 % of control | dose: 100.0 mg/kg/injection, schedule: Q01DX001 (ip), vehicle: carboxymethylcellulose (CMC) 93 % of control | dose: 133.4 mg/kg/injection, schedule: Q01DX001 (ip), vehicle: carboxymethylcellulose (CMC) 95 % of control and 102 % of control | dose: 300.0 mg/kg/injection, schedule: Q01DX001 (ip), vehicle: carboxymethylcellulose (CMC) 100 % of control and 88 % of control | dose: 400.0 mg/kg/injection, schedule: Q01DX001 (ip), vehicle: carboxymethylcellulose (CMC) 93 % of control
